Experimental findings from patent US20250367166A1, “NEXT GENERATION DIPROVOCIMS THAT ACTIVATE THE INNATE AND ADAPTIVE IMMUNE RESPONSE” (The Scripps Research Institute, priority 2022, published 2025) are described below.

SMILES strings stand for the structures. Where two headings read alike, the source gives them in different places.

Assay [1] concerns the target TLR1/TLR2 (Homo sapiens, UniProt O60603+Q15399). Briefly: TNF-α release from PMA-differentiated human THP-1 cells (ELISA).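 For all read-outs here: cells exposed to graded compound concentrations for 4 h, TNF-α quantified in supernatant, LPS as positive and DMSO as negative control, values are duplicate means.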 Conditions: for Emax: THP-1, 4 h, read-out: Efficacy (magnitude) of response versus diprovocim-1 (100%), THP-1; for EC50: read-out: EC50 (nM) (THP-1): EC50 TNF-α release from human THP-1 cells. (In general: ELISA stands for enzyme-linked immunosorbent assay.)

For assay [2], the target named is TLR1/TLR2 (Mus musculus, UniProt Q9EPQ1+Q9QUN7). Put plainly: TNF-α release from thioglycolate-elicited mouse peritoneal macrophages (ELISA). The note with it: for Emax: 4 h, read-out: Efficacy (magnitude) of response versus diprovocim-1 (100%), mouse macrophages; for EC50: read-out: EC50 (nM) (mouse): EC50 TNF-α release from mouse macrophages.
Chain of TLR1/TLR2 (Mus musculus, UniProt Q9EPQ1+Q9QUN7) (Q9EPQ1 26-795): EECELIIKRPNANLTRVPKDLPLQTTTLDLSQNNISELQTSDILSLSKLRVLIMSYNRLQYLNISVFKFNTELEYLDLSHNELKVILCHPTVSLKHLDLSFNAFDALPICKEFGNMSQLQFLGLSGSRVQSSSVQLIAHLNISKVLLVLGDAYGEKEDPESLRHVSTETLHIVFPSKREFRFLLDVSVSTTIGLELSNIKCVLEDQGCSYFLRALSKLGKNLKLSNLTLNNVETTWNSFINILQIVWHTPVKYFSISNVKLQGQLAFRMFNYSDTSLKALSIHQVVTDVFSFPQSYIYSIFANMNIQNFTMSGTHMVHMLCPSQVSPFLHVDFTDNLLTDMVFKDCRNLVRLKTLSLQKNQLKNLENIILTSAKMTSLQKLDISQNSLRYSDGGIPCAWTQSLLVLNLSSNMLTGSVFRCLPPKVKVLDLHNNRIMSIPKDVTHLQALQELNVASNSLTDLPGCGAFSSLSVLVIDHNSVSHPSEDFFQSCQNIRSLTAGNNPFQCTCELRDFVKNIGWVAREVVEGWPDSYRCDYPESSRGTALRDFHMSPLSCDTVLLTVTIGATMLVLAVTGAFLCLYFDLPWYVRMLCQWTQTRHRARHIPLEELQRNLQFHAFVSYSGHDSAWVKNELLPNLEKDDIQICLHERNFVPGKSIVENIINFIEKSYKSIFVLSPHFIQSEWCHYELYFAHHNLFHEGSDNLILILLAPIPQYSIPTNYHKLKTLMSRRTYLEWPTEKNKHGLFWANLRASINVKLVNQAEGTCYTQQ
Chain of TLR1/TLR2 (Mus musculus, UniProt Q9EPQ1+Q9QUN7) (Q9QUN7 25-784): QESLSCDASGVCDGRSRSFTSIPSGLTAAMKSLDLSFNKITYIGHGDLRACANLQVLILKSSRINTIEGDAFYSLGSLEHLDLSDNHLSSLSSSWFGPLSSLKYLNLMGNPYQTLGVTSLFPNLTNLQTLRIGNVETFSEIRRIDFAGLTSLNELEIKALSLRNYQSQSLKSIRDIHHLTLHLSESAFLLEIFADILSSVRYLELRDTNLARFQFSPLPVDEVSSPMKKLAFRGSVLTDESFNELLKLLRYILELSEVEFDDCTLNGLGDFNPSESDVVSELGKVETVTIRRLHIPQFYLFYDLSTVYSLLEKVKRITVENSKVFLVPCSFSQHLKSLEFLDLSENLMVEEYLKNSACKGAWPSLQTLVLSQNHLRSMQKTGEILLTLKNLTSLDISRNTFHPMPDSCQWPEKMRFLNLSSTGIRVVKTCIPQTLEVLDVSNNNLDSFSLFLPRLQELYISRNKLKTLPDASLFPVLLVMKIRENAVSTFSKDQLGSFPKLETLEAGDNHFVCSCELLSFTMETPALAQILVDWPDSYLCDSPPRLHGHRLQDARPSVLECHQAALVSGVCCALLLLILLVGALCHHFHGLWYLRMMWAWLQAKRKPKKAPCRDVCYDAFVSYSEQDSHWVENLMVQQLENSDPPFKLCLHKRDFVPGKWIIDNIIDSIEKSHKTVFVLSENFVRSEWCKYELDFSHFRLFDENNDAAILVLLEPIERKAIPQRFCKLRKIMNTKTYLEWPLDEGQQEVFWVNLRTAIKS

Chain of TLR1/TLR2 (Homo sapiens, UniProt O60603+Q15399) (Q15399 25-786): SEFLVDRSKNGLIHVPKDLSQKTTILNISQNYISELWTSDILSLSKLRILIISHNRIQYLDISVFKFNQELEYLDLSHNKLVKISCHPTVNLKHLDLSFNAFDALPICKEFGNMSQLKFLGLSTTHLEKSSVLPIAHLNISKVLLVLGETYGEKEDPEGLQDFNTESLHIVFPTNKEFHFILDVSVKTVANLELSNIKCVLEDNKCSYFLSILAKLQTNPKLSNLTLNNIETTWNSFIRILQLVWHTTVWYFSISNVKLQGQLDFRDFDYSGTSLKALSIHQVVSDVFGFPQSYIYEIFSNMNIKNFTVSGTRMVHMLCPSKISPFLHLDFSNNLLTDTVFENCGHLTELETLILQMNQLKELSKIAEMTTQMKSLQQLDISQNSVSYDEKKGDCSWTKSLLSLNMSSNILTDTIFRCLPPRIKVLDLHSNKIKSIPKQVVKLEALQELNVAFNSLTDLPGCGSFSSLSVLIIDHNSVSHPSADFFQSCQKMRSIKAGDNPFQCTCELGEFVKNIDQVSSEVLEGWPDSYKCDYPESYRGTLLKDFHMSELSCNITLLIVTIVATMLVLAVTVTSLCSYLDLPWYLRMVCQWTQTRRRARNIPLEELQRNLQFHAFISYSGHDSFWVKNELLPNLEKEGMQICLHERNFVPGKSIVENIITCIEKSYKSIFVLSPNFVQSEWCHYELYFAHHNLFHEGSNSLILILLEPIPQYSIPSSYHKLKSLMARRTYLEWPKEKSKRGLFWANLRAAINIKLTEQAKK
Chain of TLR1/TLR2 (Homo sapiens, UniProt O60603+Q15399) (O60603 21-784): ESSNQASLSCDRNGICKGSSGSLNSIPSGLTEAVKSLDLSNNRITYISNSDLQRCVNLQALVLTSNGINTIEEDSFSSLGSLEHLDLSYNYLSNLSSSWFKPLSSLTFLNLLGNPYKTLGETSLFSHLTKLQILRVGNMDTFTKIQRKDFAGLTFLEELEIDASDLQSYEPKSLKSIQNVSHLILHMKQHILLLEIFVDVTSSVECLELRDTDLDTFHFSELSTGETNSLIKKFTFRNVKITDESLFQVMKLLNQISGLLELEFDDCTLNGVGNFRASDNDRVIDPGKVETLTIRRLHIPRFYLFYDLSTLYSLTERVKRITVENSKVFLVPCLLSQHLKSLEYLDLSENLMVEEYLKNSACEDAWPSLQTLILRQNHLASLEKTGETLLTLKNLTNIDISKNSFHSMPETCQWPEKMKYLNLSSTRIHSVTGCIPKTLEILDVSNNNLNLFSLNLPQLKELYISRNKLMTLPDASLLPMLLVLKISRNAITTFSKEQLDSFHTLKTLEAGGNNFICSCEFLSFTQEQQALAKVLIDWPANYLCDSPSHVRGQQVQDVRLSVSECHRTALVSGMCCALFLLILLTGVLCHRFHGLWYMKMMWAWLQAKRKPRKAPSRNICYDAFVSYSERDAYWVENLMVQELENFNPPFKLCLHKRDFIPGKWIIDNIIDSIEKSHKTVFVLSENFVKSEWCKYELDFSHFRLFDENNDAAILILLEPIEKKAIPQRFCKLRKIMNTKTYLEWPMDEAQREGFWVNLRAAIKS

By EC50 is commonly meant the concentration needed to bring the measured effect to its halfway point. Take `CC(C)(C)OC(=O)c1ccc(C(=O)NCCOCCCCCCCCCCCCNC(=O)[C@@H]2CN(C(=O)c3ccc(C(=O)N4C[C@@H](C(=O)N[C@H]5C[C@@H]5c5ccccc5)[C@H](C(=O)N[C@H]5C[C@@H]5c5ccccc5)C4)cc3)C[C@H]2C(=O)N[C@H]2C[C@@H]2c2ccccc2)cc1` [Compound 85, tert-Butyl 4-((2-((12-((3S,4S)-1-(4-((3S,4S)-3,4-bis-(((1S,2R)-2-phenylcyclopropyl)carbamoyl)-pyrrolidine-1-carbonyl)benzoyl)-4-(((1S,2R)-2-phenylcyclopropyl)-carbamoyl)pyrrolidine-3-carboxamido)dodecyl)-oxy)ethyl)carbamoyl)benzoate]: the Emax on TLR1/TLR2 [1] was determined as 110%; on TLR1/TLR2 [2], 160%. In addition, the results for the EC50 on TLR1/TLR2 [1] (Table 6) and at TLR1/TLR2 [2] (Table 6) were 13.4 nM and 36 nM, respectively.

On to `CC(C)(C)OC(=O)N[C@@H](CCC(=O)OCc1ccccc1)C(=O)OCCCCCCCCCCCCNC(=O)[C@@H]1CN(C(=O)c2ccc(C(=O)N3C[C@@H](C(=O)N[C@H]4C[C@@H]4c4ccccc4)[C@H](C(=O)N[C@H]4C[C@@H]4c4ccccc4)C3)cc2)C[C@H]1C(=O)N[C@H]1C[C@@H]1c1ccccc1` [Compound 66, (S)-5-Benzyl 1-(12-((3S,4S)-1-(4-((3S,4S)-3,4-bis-(((1S,2R)-2-phenylcyclopropyl)carbamoyl)-pyrrolidine-1-carbonyl)-benzoyl)-4-(((1S,2R)-2-phenylcyclopropyl)-carbamoyl)pyrrolidine-3-carboxamido)dodecyl) 2-((tert-butoxycarbonyl)-amino)pentanedioate], for which the Emax at TLR1/TLR2 [1] was determined as 100%; at TLR1/TLR2 [2], 210%. The 50% effective concentration (EC50) worked out at 39 nM at TLR1/TLR2 [1] (Table 5) and 450 nM on TLR1/TLR2 [2] (Table 5).

With `CC(=O)NCC(=O)OCCCCCCCCCCCCNC(=O)[C@@H]1CN(C(=O)c2ccc(C(=O)N3C[C@@H](C(=O)N[C@H]4C[C@@H]4c4ccccc4)[C@H](C(=O)N[C@H]4C[C@@H]4c4ccccc4)C3)cc2)C[C@H]1C(=O)N[C@H]1C[C@@H]1c1ccccc1` [Compound 40, 12-((3S,4S)-1-(4-((3S,4S)-3,4-Bis(((1S,2R)-2-phenyl-cyclopropyl)carbamoyl)pyrrolidine-1-carbonyl)-benzoyl)-4-(((1S,2R)-2-phenylcyclopropyl)-carbamoyl)pyrrolidine-3-carboxamido)-dodecyl 2-acetamidoacetate], the Emax on TLR1/TLR2 [1] came to 90%; on TLR1/TLR2 [2], 180%. Besides, the figures for the 50% effective concentration (EC50) on TLR1/TLR2 [1] (Table 3) and on TLR1/TLR2 [2] (Table 3) were 0.1 nM and 5 nM, respectively.

As for `O=C(O)c1ccc(C(=O)OCCCCCCCCCCCCNC(=O)[C@@H]2CN(C(=O)c3ccc(C(=O)N4C[C@@H](C(=O)N[C@H]5C[C@@H]5c5ccccc5)[C@H](C(=O)N[C@H]5C[C@@H]5c5ccccc5)C4)cc3)C[C@H]2C(=O)N[C@H]2C[C@@H]2c2ccccc2)cc1` [Compound 78, 4-(((12-((3S,4S)-1-(4-((3S,4S)-3,4-Bis(((1S,2R)-2-phenylcyclopropyl)carbamoyl)pyrrolidine-1-carbonyl)benzoyl)-4-(((1S,2R)-2-phenylcyclopropyl)-carbamoyl)pyrrolidine-3-carboxamido)-dodecyl)oxy)carbonyl)benzoic acid], the Emax on TLR1/TLR2 [1] amounted to 100%; at TLR1/TLR2 [2] it was 120%. Also, the EC50 at TLR1/TLR2 [1] (Table 6) stood at 0.69 nM; on TLR1/TLR2 [2] (Table 6), 2.1 nM.

Take `CC(C)(C)OC(=O)C(=O)NCC(=O)OCCCCCCCCCCCCNC(=O)[C@@H]1CN(C(=O)c2ccc(C(=O)N3C[C@@H](C(=O)N[C@H]4C[C@@H]4c4ccccc4)[C@H](C(=O)N[C@H]4C[C@@H]4c4ccccc4)C3)cc2)C[C@H]1C(=O)N[C@H]1C[C@@H]1c1ccccc1` [Compound 83, tert-Butyl 2-((2-((12-((3S,4S)-1-(4-((3S,4S)-3,4-bis(((1S,2R)-2-phenylcyclopropyl)carbamoyl)-pyrrolidine-1-carbonyl)benzoyl)-4-(((1S,2R)-2-phenylcyclopropyl)carbamoyl)pyrrolidine-3-carboxamido)dodecyl)oxy)-2-oxoethyl)amino)-2-oxoacetate]: the results for the Emax at TLR1/TLR2 [1] and on TLR1/TLR2 [2] were 110% and 400%, respectively. Also, the EC50 at TLR1/TLR2 [1] (Table 6) is 0.54 nM; at TLR1/TLR2 [2] (Table 6) it was 16 nM.

As for `O=C(O)CCCCCCCCCCCNC(=O)[C@@H]1CN(C(=O)c2ccc(C(=O)N3C[C@@H](C(=O)N[C@H]4C[C@@H]4c4ccccc4)[C@H](C(=O)N[C@H]4C[C@@H]4c4ccccc4)C3)cc2)C[C@H]1C(=O)N[C@H]1C[C@@H]1c1ccccc1` [Compound 11, 12-((3S,4S)-1-(4-((3S,4S)-3,4-Bis(((1S,2R)-2-phenyl-cyclopropyl)carbamoyl)pyrrolidine-1-carbonyl)benzoyl)-4-(((1S,2R)-2-phenylcyclopropyl)carbamoyl)pyrrolidine-3-carboxamido)-dodecanoic acid], the Emax at TLR1/TLR2 [1] is 100%; on TLR1/TLR2 [2], 110%. Moreover, the EC50 on TLR1/TLR2 [1] (Table 1) is 3.4 nM; on TLR1/TLR2 [2] (Table 1), 280 nM.

Turning to `C#CCOCC(=O)OCCCCCCCCCCCCNC(=O)[C@@H]1CN(C(=O)c2ccc(C(=O)N3C[C@@H](C(=O)N[C@H]4C[C@@H]4c4ccccc4)[C@H](C(=O)N[C@H]4C[C@@H]4c4ccccc4)C3)cc2)C[C@H]1C(=O)N[C@H]1C[C@@H]1c1ccccc1` [Compound 54, 12-((3S,4S)-1-(4-((3S,4S)-3,4-Bis(((1S,2R)-2-phenylcyclopropyl)carbamoyl)pyrrolidine-1-carbonyl)benzoyl)-4-(((1S,2R)-2-phenylcyclopropyl)-carbamoyl)pyrrolidine-3-carboxamido)dodecyl 2-(prop-2-yn-1-yloxy)acetate], the Emax at TLR1/TLR2 [1] was found to be 30%; on TLR1/TLR2 [2], 110%. In addition, the half-maximal effective concentration (EC50) turned out to be 0.29 nM at TLR1/TLR2 [1] (Table 3) and 4.9 nM on TLR1/TLR2 [2] (Table 3).

As to `Nc1ccc(CCCCCCCCNC(=O)[C@@H]2CN(C(=O)c3ccc(C(=O)N4C[C@@H](C(=O)N[C@H]5C[C@@H]5c5ccccc5)[C@H](C(=O)N[C@H]5C[C@@H]5c5ccccc5)C4)cc3)C[C@H]2C(=O)N[C@H]2C[C@@H]2c2ccccc2)cc1` [Compound 27, (3S,4S)—N-(8-(4-Aminophenyl)octyl)-1-(4-((3S,4S)-3,4-bis(((1S,2R)-2-phenylcyclopropyl)carbamoyl)-pyrrolidine-1-carbonyl)benzoyl)-N^4-((1S,2R)-2-phenyl-cyclopropyl)-pyrrolidine-3,4-dicarboxamide], the figures for the Emax at TLR1/TLR2 [1] and at TLR1/TLR2 [2] were 100% and 250%, respectively. Also, the results for the 50% effective concentration (EC50) at TLR1/TLR2 [1] (Table 1) and on TLR1/TLR2 [2] (Table 1) were 0.3 nM and 6 nM, respectively.

`C[C@@H](NC(=O)OC(C)(C)C)C(=O)OCCCCCCCCCCCCNC(=O)[C@@H]1CN(C(=O)c2ccc(C(=O)N3C[C@@H](C(=O)N[C@H]4C[C@@H]4c4ccccc4)[C@H](C(=O)N[C@H]4C[C@@H]4c4ccccc4)C3)cc2)C[C@H]1C(=O)N[C@H]1C[C@@H]1c1ccccc1` [Compound 58, 12-((3S,4S)-1-(4-((3S,4S)-3,4-Bis(((1S,2R)-2-phenyl-cyclopropyl)carbamoyl)pyrrolidine-1-carbonyl)-benzoyl)-4-(((1S,2R)-2-phenylcyclopropyl)carbamoyl)-pyrrolidine-3-carboxamido)-dodecyl (tert-butoxycarbonyl)-D-alaninate]: the Emax came to 110% at TLR1/TLR2 [1] and 200% on TLR1/TLR2 [2]. Also, the concentration for a half-maximal effect (EC50) on TLR1/TLR2 [1] (Table 5) stood at 1.7 nM; at TLR1/TLR2 [2] (Table 5), 5 nM.

For the compound `CC(C)(C)OC(=O)N[C@@H](COCc1ccccc1)C(=O)OCCCCCCCCCCCCNC(=O)[C@@H]1CN(C(=O)c2ccc(C(=O)N3C[C@@H](C(=O)N[C@H]4C[C@@H]4c4ccccc4)[C@H](C(=O)N[C@H]4C[C@@H]4c4ccccc4)C3)cc2)C[C@H]1C(=O)N[C@H]1C[C@@H]1c1ccccc1` [Compound 64, (S)-12-((3S,4S)-1-(4-((3S,4S)-3,4-Bis(((1S,2R)-2-phenylcyclopropyl)carbamoyl)pyrrolidine-1-carbonyl)-benzoyl)-4-(((1S,2R)-2-phenylcyclopropyl)carbamoyl)-pyrrolidine-3-carboxamido)dodecyl 3-(benzyloxy)-2-((tert-butoxycarbonyl)amino)propanoate], the Emax on TLR1/TLR2 [1] was 100%; at TLR1/TLR2 [2], 370%. In addition, the EC50 came to 0.15 nM on TLR1/TLR2 [1] (Table 5) and 30 nM at TLR1/TLR2 [2] (Table 5).

For `COC(=O)CCCCCNC(=O)[C@@H]1CN(C(=O)c2ccc(C(=O)N3C[C@@H](C(=O)N[C@H]4C[C@@H]4c4ccccc4)[C@H](C(=O)N[C@H]4C[C@@H]4c4ccccc4)C3)cc2)C[C@H]1C(=O)N[C@H]1C[C@@H]1c1ccccc1` [Compound 6, Methyl 6-((3S,4S)-1-(4-((3S,4S)-3,4-bis(((1S,2R)-2-phenylcyclopropyl)carbamoyl)pyrrolidine-1-carbonyl)-benzoyl)-4-(((1S,2R)-2-phenylcyclopropyl)carbamoyl)-pyrrolidine-3-carboxamido)-hexanoate], the concentration giving a half-maximal response (EC50) at TLR1/TLR2 [1] (Table 1) turned out to be 45 nM; on TLR1/TLR2 [2] (Table 1), 1100 nM.

For the compound `NC(=O)CCCCCCCCCCCNC(=O)[C@@H]1CN(C(=O)c2ccc(C(=O)N3C[C@@H](C(=O)N[C@H]4C[C@@H]4c4ccccc4)[C@H](C(=O)N[C@H]4C[C@@H]4c4ccccc4)C3)cc2)C[C@H]1C(=O)N[C@H]1C[C@@H]1c1ccccc1` [Compound 12, (3S,4S)—N^3-(12-Amino-12-oxododecyl)-1-(4-((3S,4S)-3,4-bis(((1S,2R)-2-phenylcyclopropyl)-carbamoyl)-pyrrolidine-1-carbonyl)benzoyl)-N^4-((1S,2R)-2-phenyl-cyclopropyl)pyrrolidine-3,4-dicarboxamide], the Emax on TLR1/TLR2 [1] was 110%; at TLR1/TLR2 [2], 120%. In addition, the 50% effective concentration (EC50) is 0.9 nM at TLR1/TLR2 [1] (Table 1) and 60 nM on TLR1/TLR2 [2] (Table 1).
